Results reported in patent US20260265238A1, “COMPOUNDS AND PHARMACEUTICAL COMPOSITIONS THAT DEGRADE SWI/SNF-RELATED MATRIX-ASSOCIATED ACTIN-DEPENDENT REGULATOR OF CHROMATIN SUBFAMILY A” (Plexium, Inc., priority 2023, published 2026).

Legend:
[1] = target: T1, SMARCA4-HiBiT HeLa cells (protein which is expressed from the SMARCA4 gene) (Homo sapiens, UniProt P51532); assay: SMARCA4 degradation assay (HiBiT-fusion HeLa cell line, 24 h, luminescence); format: cell-based
T1 construct: protein which is expressed from the SMARCA2 and SMARCA4 genes; host or cells: HeLa (SMARCA4-HiBiT engineered line)
In short: (§1)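 HiBiT-fusion HeLa lines, 8,000 cells/well, overnight attachment; cpd 10-pt series (typically 10 μM–300 pM), 24 h, 37° C. Lysis with LgBiT + HiBiT substrate, 10 min shaking at RT, luminescence read. DC50 from dose-response fit; % degradation also scored at 1 μM.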

[2] = target: T2, SMARCA2-HiBiT HeLa cells (protein which is expressed from the SMARCA2 gene) (Homo sapiens, UniProt P51531); assay: SMARCA2 degradation assay (HiBiT-fusion HeLa cell line, 24 h, luminescence); format: cell-based
T2 construct: protein which is expressed from the SMARCA2 and SMARCA4 genes; host or cells: HeLa (SMARCA2-HiBiT engineered line)
In short: as §1

T2 sequence (P51531 whole entry, the tested form may be a part): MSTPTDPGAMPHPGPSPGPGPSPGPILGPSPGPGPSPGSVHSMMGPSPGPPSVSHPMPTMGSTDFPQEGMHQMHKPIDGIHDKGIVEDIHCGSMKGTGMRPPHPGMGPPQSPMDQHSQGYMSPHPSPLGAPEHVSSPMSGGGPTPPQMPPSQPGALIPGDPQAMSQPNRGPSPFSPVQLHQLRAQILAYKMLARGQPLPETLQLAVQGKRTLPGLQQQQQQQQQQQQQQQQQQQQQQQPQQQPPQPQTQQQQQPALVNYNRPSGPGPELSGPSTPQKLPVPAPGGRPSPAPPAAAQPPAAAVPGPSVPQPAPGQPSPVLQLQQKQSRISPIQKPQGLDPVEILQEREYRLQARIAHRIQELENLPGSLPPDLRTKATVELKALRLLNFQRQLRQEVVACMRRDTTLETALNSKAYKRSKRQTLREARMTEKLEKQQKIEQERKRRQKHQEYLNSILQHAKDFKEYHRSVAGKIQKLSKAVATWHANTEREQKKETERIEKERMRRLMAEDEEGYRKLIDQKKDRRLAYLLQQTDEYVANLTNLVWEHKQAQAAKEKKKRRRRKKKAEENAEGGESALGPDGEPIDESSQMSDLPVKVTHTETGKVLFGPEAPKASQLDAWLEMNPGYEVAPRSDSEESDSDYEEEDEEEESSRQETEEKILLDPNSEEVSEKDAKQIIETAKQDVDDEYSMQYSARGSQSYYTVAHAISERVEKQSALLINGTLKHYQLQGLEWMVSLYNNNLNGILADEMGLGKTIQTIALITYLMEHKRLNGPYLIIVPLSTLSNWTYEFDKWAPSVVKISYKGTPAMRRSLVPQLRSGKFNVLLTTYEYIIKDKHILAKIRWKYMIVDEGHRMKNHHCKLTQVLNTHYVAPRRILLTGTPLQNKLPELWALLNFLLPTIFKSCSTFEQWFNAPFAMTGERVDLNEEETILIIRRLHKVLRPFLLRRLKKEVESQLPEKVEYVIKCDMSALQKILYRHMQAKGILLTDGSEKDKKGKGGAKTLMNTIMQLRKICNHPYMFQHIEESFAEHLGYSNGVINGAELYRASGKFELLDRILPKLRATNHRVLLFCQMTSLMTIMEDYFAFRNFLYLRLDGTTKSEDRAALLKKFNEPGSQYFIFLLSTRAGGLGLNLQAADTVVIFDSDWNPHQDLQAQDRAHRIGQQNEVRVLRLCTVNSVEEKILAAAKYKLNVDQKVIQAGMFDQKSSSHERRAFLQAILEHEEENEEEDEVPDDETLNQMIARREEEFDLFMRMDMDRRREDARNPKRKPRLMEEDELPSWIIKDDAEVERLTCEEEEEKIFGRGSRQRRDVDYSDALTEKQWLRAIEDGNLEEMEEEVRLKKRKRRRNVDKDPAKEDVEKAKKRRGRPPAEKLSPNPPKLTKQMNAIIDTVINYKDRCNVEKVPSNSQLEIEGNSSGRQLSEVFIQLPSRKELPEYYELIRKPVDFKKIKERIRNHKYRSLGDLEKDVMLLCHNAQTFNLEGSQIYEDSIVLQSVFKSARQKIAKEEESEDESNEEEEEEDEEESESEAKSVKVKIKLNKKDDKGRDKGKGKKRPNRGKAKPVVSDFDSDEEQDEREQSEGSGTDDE
T1 sequence (P51532 whole entry, the tested form may be a part): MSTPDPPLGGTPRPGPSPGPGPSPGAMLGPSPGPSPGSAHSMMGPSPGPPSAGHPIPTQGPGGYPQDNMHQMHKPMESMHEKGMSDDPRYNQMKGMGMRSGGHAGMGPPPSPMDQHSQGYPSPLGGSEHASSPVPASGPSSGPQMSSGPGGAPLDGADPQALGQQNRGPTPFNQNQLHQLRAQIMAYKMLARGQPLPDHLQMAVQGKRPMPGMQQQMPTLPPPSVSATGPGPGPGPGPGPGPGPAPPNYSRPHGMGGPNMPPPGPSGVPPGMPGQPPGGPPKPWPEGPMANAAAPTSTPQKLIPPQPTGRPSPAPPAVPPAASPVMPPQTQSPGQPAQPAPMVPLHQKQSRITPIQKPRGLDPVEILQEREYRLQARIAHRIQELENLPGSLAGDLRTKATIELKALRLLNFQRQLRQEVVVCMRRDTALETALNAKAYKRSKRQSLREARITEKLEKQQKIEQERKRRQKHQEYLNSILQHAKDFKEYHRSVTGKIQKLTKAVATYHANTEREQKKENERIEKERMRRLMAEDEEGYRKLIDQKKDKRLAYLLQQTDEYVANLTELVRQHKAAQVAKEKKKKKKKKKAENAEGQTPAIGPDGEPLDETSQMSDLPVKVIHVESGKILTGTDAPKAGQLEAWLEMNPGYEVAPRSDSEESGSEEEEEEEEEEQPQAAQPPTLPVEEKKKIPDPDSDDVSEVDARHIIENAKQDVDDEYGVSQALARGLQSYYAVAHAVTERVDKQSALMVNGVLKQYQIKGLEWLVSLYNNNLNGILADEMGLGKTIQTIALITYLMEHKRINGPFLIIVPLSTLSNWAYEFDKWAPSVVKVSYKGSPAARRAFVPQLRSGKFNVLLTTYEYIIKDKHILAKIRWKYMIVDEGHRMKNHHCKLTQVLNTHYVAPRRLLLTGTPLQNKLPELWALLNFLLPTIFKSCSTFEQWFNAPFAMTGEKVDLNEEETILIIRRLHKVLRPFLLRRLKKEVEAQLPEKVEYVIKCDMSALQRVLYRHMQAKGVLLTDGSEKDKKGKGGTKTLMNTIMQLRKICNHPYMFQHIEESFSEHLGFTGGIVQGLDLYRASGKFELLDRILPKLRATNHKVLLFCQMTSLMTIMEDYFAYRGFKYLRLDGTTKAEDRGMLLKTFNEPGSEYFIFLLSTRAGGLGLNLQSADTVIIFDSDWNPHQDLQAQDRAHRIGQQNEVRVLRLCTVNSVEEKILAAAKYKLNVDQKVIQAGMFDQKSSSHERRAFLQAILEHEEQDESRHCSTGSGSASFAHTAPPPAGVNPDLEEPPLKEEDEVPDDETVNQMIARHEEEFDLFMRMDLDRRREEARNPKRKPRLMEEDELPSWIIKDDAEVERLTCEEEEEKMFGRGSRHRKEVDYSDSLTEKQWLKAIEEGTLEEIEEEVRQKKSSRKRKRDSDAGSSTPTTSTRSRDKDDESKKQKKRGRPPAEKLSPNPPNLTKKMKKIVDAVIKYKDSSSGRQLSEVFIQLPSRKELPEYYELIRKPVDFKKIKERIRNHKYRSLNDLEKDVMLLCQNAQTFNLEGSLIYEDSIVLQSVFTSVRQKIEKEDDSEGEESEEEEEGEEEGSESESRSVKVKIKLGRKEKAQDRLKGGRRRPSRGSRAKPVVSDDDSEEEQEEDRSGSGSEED

Structure (SMILES)	DC50 [1]	inhibition at 1 µM [1]	DC50 [2]	SMARCA2 % Degradation @ 1 μM [2]
Nc1nnc(-c2ccccc2O)cc1N1CCCN(c2ccnc(C#CCN[C@@H]3CCOC3)n2)CC1 [Compound P-273, 0-{5-[4-(2-{3-[(R)-tetrahydro-3-furylamino]-1-propynyl}-4-pyrimidinyl)-1,4-diazepan-1-yl]-6-amino-3-pyridazinyl}phenol]	50 to 500 nM	30 to 70%	50 to 500 nM	+++ (+++=>70%)
CC[C@@H](C)NCC#Cc1nccc(N2CCCN(c3cc(-c4ccccc4O)nnc3N)CC2)n1 [Compound P-274, 0-{5-[4-(2-{3-[(R)-1-methylpropylamino]-1-propynyl}-4-pyrimidinyl)-1,4-diazepan-1-yl]-6-amino-3-pyridazinyl}phenol]	50 to 500 nM	30 to 70%	50 to 500 nM	+++ (+++=>70%)
Nc1nnc(-c2ccccc2O)cc1N1CCCN(c2ccnc(C#CCN[C@H]3CCOC3)n2)CC1 [Compound P-275, 0-{5-[4-(2-{3-[(S)-tetrahydro-3-furylamino]-1-propynyl}-4-pyrimidinyl)-1,4-diazepan-1-yl]-6-amino-3-pyridaziny1}phenol]	50 to 500 nM	30 to 70%	50 to 500 nM	+++ (+++=>70%)
COC[C@H](C)NCC#Cc1nccc(N2CCCN(c3cc(-c4ccccc4O)nnc3N)CC2)n1 [Compound P-276, 0-{5-[4-(2-{3-[(S)-2-methoxy-1-methylethylamino]-1-propynyl}-4-pyrimidinyl)-1,4-diazepan-1-yl]-6-amino-3-pyridazinyl}phenol]	50 to 500 nM	30 to 70%	50 to 500 nM	++ (++=30-70%)
COC[C@@H](C)NCC#Cc1nccc(N2CCCN(c3cc(-c4ccccc4O)nnc3N)CC2)n1 [Compound P-277, 0-{5-[4-(2-{3-[(R)-2-methoxy-1-methylethylamino]-1-propynyl}-4-pyrimidinyl)-1,4-diazepan-1-yl]-6-amino-3-pyridazinyl}phenol]	50 to 500 nM	30 to 70%	50 to 500 nM	++ (++=30-70%)
CC1(NCC#Cc2nccc(N3CCCN(c4cc(-c5ccccc5O)nnc4N)CC3)n2)COC1 [Compound P-278, 0-[6-amino-5-(4-{2-[3-(3-methyl-3-oxetanylamino)-1-propynyl]-4-pyrimidinyl}-1,4-diazepan-1-yl)-3-pyridazinyl]phenol]	50 to 500 nM	30 to 70%	50 to 500 nM	++ (++=30-70%)
C[C@H]1CCN1CC#Cc1nccc(N2CCCN(c3cc(-c4ccccc4O)nnc3N)CC2)n1 [Compound P-279, 0-{5-[4-(2-{3-[(S)-2-methyl-1-azetidinyl]-1-propynyl}-4-pyrimidinyl)-1,4-diazepan-1-y1]-6-amino-3-pyridazinyl}phenol]	50 to 500 nM	30 to 70%	50 to 500 nM	+++ (+++=>70%)
Nc1nnc(-c2ccccc2O)cc1N1CCN(c2ccnc(C#CCN3CCCCC3)n2)CC1 [Compound P-280, 0-(6-amino-5-{4-[2-(3-piperidino-1-propynyl)-4-pyrimidinyl]-1-piperazinyl}-3-pyridazinyl)phenol]	< 50 nM	< 30%	< 50 nM	++ (++=30-70%)
Cc1nn2ccn(CC#Cc3nccc(N4CCN(c5cc(-c6ccccc6O)nnc5N)CC4)n3)c(=O)c2c1C [Compound P-281, 5-[3-(4-{4-[3-amino-6-(o-hydroxyphenyl)-4-pyridazinyl]-1-piperazinyl}-2-pyrimidinyl)-2-propynyl]-2,3-dimethyl-1,5,7a-triaza-4(5H)-indenone]	< 50 nM	30 to 70%	< 50 nM	++ (++=30-70%)
Cc1nn2ccn(CC#Cc3nccc(N4CC5CCC(C4)N5c4cc(-c5ccccc5O)nnc4N)n3)c(=O)c2c1C [Compound P-282, 5-[3-(4-{8-[3-amino-6-(o-hydroxyphenyl)-4-pyridaziny1]-3,8-diazabicyclo[3.2.1]oct-3-yl}-2-pyrimidinyl)-2-propynyl]-2,3-dimethyl-1,5,7a-triaza-4(5H)-indenone]	50 to 500 nM	30 to 70%	50 to 500 nM	++ (++=30-70%)
Nc1nnc(-c2ccccc2O)cc1N1C2CCC1CN(c1ccnc(C#CCn3cncn3)n1)C2 [Compound P-283, 0-[6-amino-5-(3-{2-[3-(1H-1,2,4-triazol-1-yl)-1-propynyl]-4-pyrimidinyl}-3,8-diazabicyclo[3.2.1]oct-8-yl)-3-pyridazinyl]phenol]	50 to 500 nM	< 30%	50 to 500 nM	++ (++=30-70%)
Nc1nnc(-c2ccccc2O)cc1N1C2CCC1CN(c1ccnc(C#CCn3ccnc3)n1)C2 [Compound P-284, 0-[6-amino-5-(3-{2-[3-(1-imidazolyl)-1-propynyl]-4-pyrimidinyl}-3,8-diazabicyclo[3.2.1]oct-8-yl)-3-pyridazinyl]phenol]	500 to 5000 nM	< 30%	50 to 500 nM	++ (++=30-70%)
Nc1nnc(-c2ccccc2O)cc1N1C[C@H]2C[C@@H]1CN2c1ccnc(C#CCN2CCCCC2)n1 [Compound P-285, 0-(5-{(1R,4R)-5-[2-(3-piperidino-1-propynyl)-4-pyrimidinyl]-2,5-diazabicyclo[2.2.1]hept-2-y1}-6-amino-3-pyridazinyl)phenol]	< 50 nM	< 30%	< 50 nM	++ (++=30-70%)
Cc1nn2ccn(CC#Cc3nccc(N4C[C@H]5C[C@@H]4CN5c4cc(-c5ccccc5O)nnc4N)n3)c(=O)c2c1C [Compound P-286, 5-[3-(4-{(1R,4R)-5-[3-amino-6-(0-hydroxyphenyl)-4-pyridazinyl]-2,5-diazabicyclo[2.2.1]hept-2-y1}-2-pyrimidinyl)-2-propynyl]-2,3-dimethyl-1,5,7a-triaza-4(5H)-indenone]	50 to 500 nM	30 to 70%	50 to 500 nM	++ (++=30-70%)
Cn1ccc(NCC#Cc2nccc(N3C4CCC3CN(c3cc(-c5ccccc5O)nnc3N)C4)n2)n1 [Compound P-287]	50 to 500 nM	30 to 70%	50 to 500 nM	++ (++=30-70%)
Nc1nnc(-c2ccccc2O)cc1N1CC2CCC(C1)N2c1ccnc(C#CCN2CCCCC2)n1 [Compound P-288, 0-(6-amino-5-{8-[2-(3-piperidino-1-propynyl)-4-pyrimidinyl]-3,8-diazabicyclo[3.2.1]oct-3-y1}-3-pyridazinyl)phenol]	50 to 500 nM	30 to 70%	50 to 500 nM	++ (++=30-70%)
Nc1nnc(-c2ccccc2O)cc1N1CC2CCC(C1)N2c1ccnc(C#CCn2cncn2)n1 [Compound P-289, 0-[6-amino-5-(8-{2-[3-(1H-1,2,4-triazol-1-yl)-1-propynyl]-4-pyrimidinyl}-3,8-diazabicyclo[3.2.1]oct-3-yl)-3-pyridazinyl]phenol]	50 to 500 nM	30 to 70%	50 to 500 nM	++ (++=30-70%)
Nc1nnc(-c2ccccc2O)cc1N1CC2CCC(C1)N2c1ccnc(C#CCn2ccnc2)n1 [Compound P-290]	50 to 500 nM	< 30%	50 to 500 nM	++ (++=30-70%)
CNCC#Cc1nccc(N2C3CCC2CN(c2cc(-c4ccccc4O)nnc2N)C3)n1 [Compound P-291, 0-[6-amino-5-(8-{2-[3-(methylamino)-1-propynyl]-4-pyrimidinyl}-3,8-diazabicyclo[3.2.1]oct-3-yl)-3-pyridazinyl]phenol]	50 to 500 nM	< 30%	50 to 500 nM	++ (++=30-70%)
CNCC#Cc1nccc(N2CCN(c3cc(-c4ccccc4O)nnc3N)[C@@H](C)C2)n1 [Compound P-292, 0-{5-[(S)-2-methyl-4-{2-[3-(methylamino)-1-propynyl]-4-pyrimidinyl}-1-pipcrazinyl]-6-amino-3-pyridaziny1} phenol]	< 50 nM	< 30%	50 to 500 nM	++ (++=30-70%)
C[C@H]1CN(c2ccnc(C#CCn3ccnc3)n2)CCN1c1cc(-c2ccccc2O)nnc1N [Compound P-293, 0-{5-[(S)-4-{2-[3-(1-imidazolyl)-1-propynyl]-4-pyrimidinyl}-2-methyl-1-piperaziny1]-6-amino-3-pyridazinyl}phenol]	< 50 nM	< 30%	50 to 500 nM	++ (++=30-70%)
CNCC#Cc1nccc(N2CCN(c3cc(-c4ccccc4O)nnc3N)CC2)n1 [Compound P-294, 0-[6-amino-5-(4-{2-[3-(methylamino)-1-propynyl]-4-pyrimidinyl}-1-piperazinyl)-3-pyridazinyl]phenol]	< 50 nM	< 30%	< 50 nM	++ (++=30-70%)
CNCC#Cc1nccc(N2C[C@H]3C[C@@H]2CN3c2cc(-c3ccccc3O)nnc2N)n1 [Compound P-295, 0-{5-[(1R,4R)-5-{2-[3-(methylamino)-1-propynyl]-4-pyrimidinyl}-2,5-diazabicyclo[2.2.1]hept-2-y1]-6-amino-3-pyridazinyl} phenol]	50 to 500 nM	< 30%	50 to 500 nM	++ (++=30-70%)
